{"source": "paper PMC9820118", "about": "“Betulin Acid Ester Derivatives Inhibit Cancer Cell Growth by Inducing Apoptosis through Caspase Cascade Activation: A Comprehensive In Vitro and In Silico Study” (International Journal of Molecular Sciences, 2022)", "key": {"[1]": {"system": "MV4-11 cells", "assay": "Antiproliferative activity, MTT assay, MV4-11 leukemia cells", "type": "cell-based, human"}, "[2]": {"system": "A549 cells", "assay": "Induction of apoptosis, Annexin V/PI staining, A549", "type": "cell-based, human", "conditions": "about 1.5 × IC50, 24 h", "description": "(§1) Apoptosis is one of a cell’s natural mechanisms for programmed cell death. It plays a crucial role in homeostasis by eliminating the unwanted or unnecessary cells. One of the most important functions of apoptosis is prevention of cancer. However, cancer cells often lose the ability to enter the path of apoptosis, which allows them to survive longer and grow in an uncontrolled manner. Regardless of that, apoptosis still remains the most important molecular mechanism to combat cancer cells; therefore, research is conducted to obtain agents with the ability to selectively induce apoptosis in cancer cell lines.\n(§2) The MV4-11, A549 and PC-3 cells were seeded on 24-well plates (Sarstedt, Germany) for a final volume of 1.5 mL. […] After incubation, the cells were collected and 2 × 10^5 of cells were washed twice with PBS. […] Results were analyzed using Flowing software 2.5.1. […]"}, "[3]": {"system": "PC-3 cells", "assay": "Induction of apoptosis, Annexin V/PI staining, PC-3", "type": "cell-based, human", "conditions": "about 1.5 × IC50, 72 h", "description": "as §1, §2"}, "[4]": {"system": "A549 cells", "assay": "Cell cycle analysis, PI staining flow cytometry, A549", "type": "cell-based, human", "method": "(§3) The effects of the selected derivatives on the cell cycle were analyzed by flow cytometry using PI staining.\n(§4) The MV4-11, A549 and PC-3 cells were seeded on 24-well plates (Sarstedt, Germany) for a final volume of 1.5 mL. […] After incubation, the cells were collected and 1 × 10^6 of cells were washed twice in cold PBS and fixed for 24 h in 70% ethanol at −20 °C, the cells were washed twice in PBS and incubated with RNAse (8 μg/mL, Fermentas, Germany) at 37 °C for 1 h. The cells were stained for 30 min. with propidium iodide (50 μg/mL, Sigma Aldrich, Germany) at 4 °C and the cellular DNA content was analyzed by flow cytometry using BD LSRFortessa cytometer (BD Bioscience, San Jose, CA, USA). Compounds at each concentration were tested at least three times independently. The obtained results were analyzed using Flowing software 2.5.1 (Cell Imaging Core, Turku Centre for Biotechnology, University of Turku and Åbo Akademi University, Turku, Finland)."}, "[5]": {"system": "MV4-11 cells", "assay": "Cell cycle analysis, PI staining flow cytometry, MV4-11", "type": "cell-based, human", "conditions": "about IC50, 24 and 72 h", "method": "as §3, §4"}, "[6]": {"system": "caspase-3/7", "assay": "Caspase-3/7 activity (AC-DEVD-AMC substrate) in A549 cells", "type": "cell-based, human", "design": "key: +: plus mark represents statistically important elevated activity of caspase 3/7 compared to control", "description": "(§5) Caspase-3 and caspase-7 are cysteine-aspartic acid proteases that can directly execute apoptosis […] sequential activation of caspase-8 or caspase-9. Activation of these enzymes leads to apoptotic cell death; thus, measuring their activity is a good method to determine the pro-apoptotic potential of tested compounds. One of the mechanisms of betulin’s antiproliferative activity is activation of these enzymes; therefore, to further examine the mechanism of action of tested derivatives, we decided to determine their levels.\n(§6) The MV4-11, A549 and PC-3 cells were seeded on 48-well plates for a final volume of 1 mL. […] After incubation, the cells were collected and centrifuged (5 min., 4 °C, 250× g). Cells were suspended in 50 µL of ice-cold lysis buffer (50 mM HEPES, 10% (w/v) sucrose, 150 mM NaCl, 2 mM EDTA and 1% (v/v) Triton X-100, pH 7.3, HIIET, Poland) and incubated 30 min. at […]. After the incubation, 40 µL of each sample was transferred to a white, 96-well plate (Corning, CA, USA) containing 160 µL of the reaction buffer (20 mM HEPES, 10 % sucrose, 100 mM NaCl, 1 mM EDTA, 10 mM DTT, 0.02 % Trition X-100, pH 7.3) (HIIET, Wroclaw, Poland) with 9 µM AC-DEVD-AMC (Cayman Chemical) fluorogenic substrate (λex = 360 nm, λem = 460 nm). The fluorescence increase correlated with the caspase-3/7 level was continuously recorded at 37 °C for 120 min using a Biotek Synergy H4 (Biokom, Warsaw, Poland). Compounds were tested in duplicates in a single experiment and each experiment was repeated at least three times independently. Results were normalized to the number of cells in each well and are reported as mean relative caspase-3/7 activity compared to the untreated control sample ± SD."}, "[7]": {"system": "caspase-3/7", "assay": "Caspase-3/7 activity (AC-DEVD-AMC substrate) in PC-3 cells", "type": "cell-based, human", "design": "key to Caspase 3/7 Activity, PC-3: +: plus mark represents statistically important elevated activity of caspase 3/7 compared to control", "conditions": "+/− summary vs control", "description": "as §5, §6"}, "[8]": {"assay": "Experimental lipophilicity by RP-TLC"}, "[9]": {"assay": "Cytotoxicity, SRB assay, normal BALB/3T3 fibroblasts", "conditions": "mouse, BALB/3T3 normal fibroblast cells", "quoted_text": "(§7) The in vitro antiproliferative activity tests have been conducted against four human cancer cell lines: MV4-11 biphenotypic B myelomonocytic leukemia cell line, A549 lung carcinoma cell line, MCF-7 breast carcinoma cell line, PC-3 prostate carcinoma cell line and one normal BALB/3T3 mouse fibroblast cell line. […] All tested compounds were dissolved in DMSO and diluted with a culture medium to a desired concentration. […] Cell viability, after 72 h incubation of the cells with tested compounds, was determined using tetrazolinum dye MTT (for MV4-11 cells) or sulforhodamine B (SRB test, for MCF-7, A549, PC-3, BALB/3T3 cells) colorimetric assays.\n(§8) Human biphenotypic B myelomonocytic leukemia MV4-11, murine normal fibroblast BALB/3T3 cells were obtained from the American Type Culture Collection (USA); and human lung carcinoma A549, human breast cancer MCF-7 and human prostate adenocarcinoma PC-3 were obtained from the European Collection of Authenticated Cell Cultures (UK).\n(§9) MV4-11 and PC-3 cells were cultured in RPMI 1640 medium (HIIET PAS, Poland) with 1.0 mM sodium pyruvate (only MV4-11) and 10% fetal bovine serum (FBS) (all from Merck, Darmstadt, Germany). A549 cells were cultured in RPMI 1640 + Opti-MEM (1:1) ((HIIET PAS, Poland and Gibco, UK) supplemented with 5% fetal bovine serum (Merck, Darmstadt, Germany). The MCF-7 cells were cultured in Eagle medium (HIIET PAS, Poland) supplemented with 8 mg/mL of insulin and 1% of MEM NON-Essential amino acid (all Merck, Darmstadt, Germany). Normal fibroblasts BALB/3T3 cells were cultured in DMEM medium (Gibco, UK) supplemented with 10% fetal bovine serum and 1.0 mM sodium pyruvate (all from Merck, Darmstadt, Germany). All culture media were supplemented with 2 mM L-glutamine (Merck, Darmstadt, Germany), 100 units/ml penicillin, (Polfa Tarchomin S.A., Poland) and 100 µg/mL streptomycin (Merck, Darmstadt, Germany). All cell lines were grown at 37 °C in a 5% CO2 humidified atmosphere.\n(§10) The solutions of the tested compounds were prepared by dissolving the substances in DMSO to the desired concentration (25 mM). Then, the tested compounds were diluted in a culture medium to reach the final concentrations. Before addition of the tested compounds (24 h prior), the cells were plated in 96-well plates (Sarstedt, Germany) at a density of 1 × 10^4, 0.75 × 10^4 (MCF-7) or 0.5 × 10^4 (A549) cells per well. The assay was performed after 72 h of exposure to 100, 10, 1 and 0.1 µM concentration of the tested agents. […] The SRB method determined the amount of cellular proteins. The concentration of the colorimetric probe (formazan in MTT or sulforhodamine B in SRB method) was determined by an optical density measurement using a standard microplate reader for 96-well plates. After optical density measurement, using the data of the mean absorbances of control cells (AbCC), the absorbances of cells treated by the tested compound (AbTr) (for each concentration separately) and the absorbance of the cultured medium (AbCM) the % of cell proliferation inhibition was calculated according to the following formula: % inh. cells proliferation=100−AbTr−AbCM/AbCC−AbCM×100\n(§11) From the obtained proliferation inhibition values, effect-concentration curves of the compound used were plotted. […] IC50 values were calculated for each experiment separately using the Prolab-3 system based on Cheburator 0.4 software [36] and mean values (±SD) are presented. Each compound in each concentration was tested in triplicate in a single experiment, which was repeated 3–5 times."}, "[10]": {"system": "A549 cell line", "assay": "Antiproliferative activity, SRB assay, A549 lung carcinoma cells", "quoted_text": "as §7, §8, §9, §10, §11"}, "[11]": {"system": "MCF-7 cell line", "assay": "Antiproliferative activity, SRB assay, MCF-7 breast carcinoma cells"}, "[12]": {"system": "PC-3 cell line", "assay": "Antiproliferative activity, SRB assay, PC-3 prostate carcinoma cells"}}, "note": "Entries after “also recorded” stand apart in the source; their conditions may differ."}
{"compound": "C=C(C)[C@@H]1CC[C@]2(COC(=O)CCC(=O)O)CC[C@]3(C)C(CCC4[C@@]5(C)CC[C@H](O)C(C)(C)C5CC[C@]43C)C12", "note": "(stereo partly shown) [compound 2]", "values": [{"measurement": "IC50", "setting": "[1]; Homo sapiens, MV4-11, 72 h, 72 h incubation, MTT, read-out: Growth inhibition IC50, leukemia cell line MV4-11", "value": 23.2, "unit": "µM"}, {"measurement": "Calculated Selectivity Index SI, MV4-11", "setting": "[1]; IC50 BALB/3T3 / IC50 MV4-11", "value": 2.3}, {"measurement": "Induction of apoptosis (AnV/PI), A549, 24 h", "setting": "[2]", "value": "significantly increased levels of early-apoptotic and apoptotic cells"}, {"measurement": "Induction of apoptosis (AnV/PI), PC-3, 72 h", "setting": "[3]", "value": "shifting the ratio of the living cell population towards apoptotic and necrotic ones"}, {"measurement": "Influence on cell cycle, A549, 24 h", "setting": "[4]; about IC50, 24 h", "value": "significantly induced cell cycle arrest in the G0/G1 phase; also recorded: reduced the number of cells in the S phase with an increased number of dead cells"}, {"measurement": "Influence on cell cycle, A549, 72 h", "setting": "[4]; about IC50, 72 h", "value": "greater percentage of dead cells with a decrease in G2/M and G0/G1 phases"}, {"measurement": "Influence on cell cycle, MV4-11", "setting": "[5]", "value": "statistically significant increase in the number of cells in the G0/G1 phase"}, {"measurement": "caspase 3/7 activity, A549", "setting": "[6]; 1.5 × IC50, 24 h, several-fold lower at 72 h", "value": "hugely elevated caspase 3/7 activity"}, {"measurement": "caspase 3/7 activity, A549", "setting": "[6]; +/− summary vs control", "value": "+"}, {"measurement": "Caspase 3/7 Activity, PC-3", "setting": "[7]", "value": "+"}, {"measurement": "RM0", "setting": "[8]; RP-TLC, RP-18 F254S, acetone / Tris buffer pH 7.4, extrapolated to zero acetone", "value": 5.910}, {"measurement": "log PTLC", "setting": "[8]; from RM0 by calibration curve with eight reference compounds", "value": 8.191}, {"measurement": "IC50 at 72 h", "setting": "[9]", "value": 53.4, "unit": "µM"}, {"measurement": "IC50", "setting": "[10]; Homo sapiens, A549, 72 h, read-out: Cytotoxicity IC50 against A549 cell line", "value": 35.3, "unit": "µM"}, {"measurement": "Calculated Selectivity Index SI, A549", "setting": "[10]; IC50 BALB/3T3 / IC50 A549", "value": 1.5}, {"measurement": "IC50", "setting": "[11]; Homo sapiens, MCF7, 72 h, read-out: Cytotoxicity IC50 against MCF-7 cell line", "value": 53.6, "unit": "µM"}, {"measurement": "Calculated Selectivity Index SI, MCF-7", "setting": "[11]; IC50 BALB/3T3 / IC50 MCF-7", "value": 1.0}, {"measurement": "IC50", "setting": "[12]; Homo sapiens, PC-3, 72 h, read-out: Cytotoxicity IC50 against PC-3 cell line", "value": 68.5, "unit": "µM"}, {"measurement": "Calculated Selectivity Index SI, PC-3", "setting": "[12]; IC50 BALB/3T3 / IC50 PC-3", "value": 0.8}]}
